{
  "source": "paper PMC9718795",
  "about": "“Caffeic acid N-[3,5-bis(trifluoromethyl)phenyl] amide as a non-steroidal inhibitor for steroid 5α-reductase type 1 using a human keratinocyte cell-based assay and molecular dynamics” (Scientific Reports, 2022)",
  "molecules": {"B1": {"name": "HaCaTs-produced SRD5A1 (Homo sapiens) (protein)", "chain": "MATATGVAEERLLAALAYLQCAVGCAVFARNRQTNSVYGRHALPSHRLRVPARAAWVVQELPSLALPLYQYASESAPRLRSAPNCILLAMFLVHYGHRCLIYPFLMRGGKPMPLLACTMAIMFCTCNGYLQSRYLSHCAVYADDWVTDPRFLIGFGLWLTGMLINIHSDHILRNLRKPGDTGYKIPRGGLFEYVTAANYFGEIMEWCGYALASWSVQGAAFAFFTFCFLSGRAKEHHEWYLRKFEEYPKFRKIIIPFLF", "notes": "HaCaTs-produced SRD5A1 smoothly converted testosterone to DHT; endogenous in cells; host or cells: HaCaT human keratinocytes"}},
  "key": {"[1]": {"tested_on": "human keratinocyte (HaCaT) cells", "assay": "In vitro cytotoxic MTT assay against HaCaT cells", "assay_type": "cell-based", "details": "0.5–50 µM, 24 h", "procedure": "(§1) The cytotoxicity of caffeic acid and its amide derivatives were evaluated with two cell lines, human keratinocyte (HaCaT) and DP cells, using the common cell viability assay with MTT. HaCaT and DP cells were seeded at 1 × 10^4 cell/well in 96-well plates in a complete DMEM medium, incubated overnight, and treated with test compounds at 0–50 µM for 24 h. The stock solutions of all the test compounds were prepared in DMSO. Each compound was serially diluted in DMEM to achieve concentrations at 0.5–50 µM; DMEM was used as the negative control. After 24 h of treatment, the culture medium was removed, and cell viability was determined by adding 100 µL of 0.5 mg/mL MTT at 37 °C in darkness for 3 h. After removing the MTT solution, 100 µL of DMSO was added to each well to dissolve the purple formazan crystals. The absorbance was measured at 570 nm using a microplate reader, and the IC50 value was calculated. Each experiment was performed in triplicates."}, "[2]": {"tested_on": "dermal papilla (DP) cells", "assay": "In vitro cytotoxic MTT assay against DP cells", "assay_type": "cell-based, human", "details": "0.5–50 µM, 24 h", "procedure": "as §1"}, "[3]": {"assay": "Cell viability (MTT) run in parallel with the HaCaT-based SRD5A1 inhibitory assay", "design": "species or system human", "details": "human"}, "HaCaT cells": {"tested_on": "HaCaT cells", "assay": "Cell viability (MTT) run in parallel with the HaCaT-based SRD5A1 inhibitory assay", "design": "species or system human", "details": "human, 24 h, 20 µM"}, "[4]": {"biological_target": "T1, steroid 5α-reductase type 1 (SRD5A1) (Homo sapiens, UniProt P18405)", "T1 construct": "HaCaTs-produced SRD5A1 smoothly converted testosterone to DHT; endogenous in cells; host or cells: HaCaT human keratinocytes", "T1 sequence (P18405 1-259)": "B1 chain", "assay": "HaCaT cell-based SRD5A1 inhibitory assay with direct DHT detection by HPTLC", "details": "HaCaT, HaCaT, read-out: % Inhibition of DHT production ± SD; for inhibition at 20 µM: compound 20 µM, 24 h"}, "[5]": {"assay": "Cell viability (MTT) in the whole-cell kinetic study", "assay_type": "cell-based", "details": "human, HaCaT cells, testosterone 0−50 µM, read-out: Cell viabilities", "procedure": "(§2) The in vitro whole HaCaT cell-based assay for the kinetic inhibition against SRD5A1 included culturing the cells for 48 h, treating the cells with testosterone and compound 4 for 12 h and evaluating the % intensity of DHT and cell viability using HPTLC analysis and MTT assay, respectively. The HaCaT cells were seeded and incubated as same as the method shown in 3.8. For the evaluation of dose-dependent activity of testosterone, the different concentration of testosterone (0 − 50 μM) and DMEM with 0.1% DMSO were added. […] DMEM with 0.1% DMSO was used as negative control. Then, the cells were incubated for 12 h. The collection of cell culture medium, extraction process, sample preparation and HPTLC detection were prepared by the method mentioned above (3.8). The obtaining chromatogram was visualized by CAMAG HPTLC Software vision CATS and analyzed by Image J software. The percentage of DHT intensity was calculated based on the intensity of DHT normalized by the standard of DHT at 100 μM. At the same time, the cell viability of the treated cells was assessed by the MTT assay. Each experiment was repeated in triplicate."}, "HaCaTs-produced SRD5A1": {"biological_target": "T2, HaCaTs-produced SRD5A1 (Homo sapiens, UniProt P18405)", "T2 construct": "HaCaTs-produced SRD5A1 smoothly converted testosterone to DHT; endogenous in cells; host or cells: HaCaT human keratinocytes", "T2 sequence (P18405 1-259)": "B1 chain", "assay": "Whole-cell-based kinetic study of HaCaT-produced SRD5A1 with HPTLC", "details": "no inhibitor, 12 h", "procedure": "as §2"}, "[6]": {"biological_target": "T1, steroid 5α-reductase type 1 (SRD5A1)", "design": "method as in PMID 28250347", "details": "same HaCaT cell-based assay; read-out: IC50 of SRD5A1 inhibition; cited from earlier work"}, "[7]": {"substrate": "C[C@]12CC[C@H]3[C@@H](CCC4=CC(=O)CC[C@@]43C)[C@@H]1CC[C@@H]2O", "assay": "Whole-cell-based kinetic study of HaCaT-produced SRD5A1 with HPTLC", "design": "species or system human", "details": "other: no inhibitor, Michaelis–Menten, 12 h", "procedure": "as §2"}, "[8]": {"details": "HaCaT cells, compound 20 µM, HaCaT, 24 h, read-out: % Cell viability ± SD"}},
  "note": "Where two headings read alike, the source gives them in different places.",
  "data": [
    {"molecule": "O=C(O)C=Cc1ccc(O)c(O)c1", "note": "[Compound 1, 3,4-dihydroxycinnamic acid]", "values": [
      {"measurement": "Toxicity against HaCaT cells", "setting": "[1]", "result": "no toxicity"},
      {"measurement": "Toxicity against DP cells", "setting": "[2]", "result": "no toxicity"},
      {"measurement": "viability at 24 h, 20 µM", "setting": "[3]; % Cell viability ± SD", "result": 86, "unit": "%"},
      {"measurement": "% Cell viability ± SD", "setting": "HaCaT cells", "result": "86.38 ± 5.70", "unit": "%"}
    ]},
    {"molecule": "O=C(C=Cc1ccc(O)c(O)c1)Nc1ccccc1", "note": "[Compound 2, 3-(3,4-dihydroxyphenyl)-N-phenyl-2-propenamide]", "values": [
      {"measurement": "Toxicity against HaCaT cells", "setting": "[1]", "result": "no toxicity"},
      {"measurement": "inhibition at 20 µM", "setting": "[4]", "result": "4.84 ± 2.12", "unit": "%"},
      {"measurement": "Toxicity against DP cells", "setting": "[2]", "result": "no toxicity"},
      {"measurement": "viability at 24 h, 20 µM", "setting": "[3]; [8]", "result": "102.9 ± 0.4", "unit": "%"}
    ]},
    {"molecule": "CC(C)(C)NC(=O)C=Cc1ccc(O)c(O)c1", "note": "[Compound 3, 3-(3,4-dihydroxyphenyl)-N-(1,1-dimethylethyl)-2-propenamide]", "values": [
      {"measurement": "Toxicity against HaCaT cells", "setting": "[1]", "result": "no toxicity"},
      {"measurement": "inhibition at 20 µM", "setting": "[4]", "result": "2 ± 2.12", "unit": "%"},
      {"measurement": "Toxicity against DP cells", "setting": "[2]", "result": "no toxicity"},
      {"measurement": "viability at 24 h, 20 µM", "setting": "[3]; [8]", "result": "102 ± 2.09", "unit": "%"}
    ]},
    {"molecule": "C[C@]12C=CC(=O)N[C@@H]1CC[C@@H]1[C@@H]2CC[C@]2(C)[C@@H](C(=O)Nc3cc(C(F)(F)F)ccc3C(F)(F)F)CC[C@@H]12", "note": "[Dutasteride, reference compound]", "values": [
      {"measurement": "inhibition at 2.5 µM", "setting": "[4]", "result": 100, "unit": "%"},
      {"measurement": "viability at 24 h, 2.5 µM", "setting": "[3]; HaCaT cells, 2.5 µM, positive control, HaCaT, 24 h, read-out: % Cell viability ± SD", "result": "88.14 ± 0.11", "unit": "%"}
    ]},
    {"molecule": "C[C@]12CC[C@H]3[C@@H](CCC4=CC(=O)CC[C@@]43C)[C@@H]1CC[C@@H]2O", "note": "[Testosterone, reference compound]", "values": [
      {"measurement": "viability at 12 h", "setting": "[5]", "result": "~80", "unit": "%"},
      {"measurement": "Vmax in the absence of inhibitors", "setting": "HaCaTs-produced SRD5A1", "result": 130.9},
      {"measurement": "% DHT intensity ± S.D.", "setting": "HaCaTs-produced SRD5A1; testosterone 1 µM", "result": "15.35 ± 9.10", "unit": "%"},
      {"measurement": "% DHT intensity ± S.D.", "setting": "HaCaTs-produced SRD5A1; testosterone 5 µM", "result": "43.55 ± 10.80", "unit": "%"},
      {"measurement": "% DHT intensity ± S.D.", "setting": "HaCaTs-produced SRD5A1; testosterone 10 µM", "result": "65.05 ± 13.06", "unit": "%"},
      {"measurement": "% DHT intensity ± S.D.", "setting": "HaCaTs-produced SRD5A1; testosterone 25 µM", "result": "103.52 ± 20.66", "unit": "%"},
      {"measurement": "% DHT intensity ± S.D.", "setting": "HaCaTs-produced SRD5A1; testosterone 50 µM", "result": "105.75 ± 11.30", "unit": "%"},
      {"measurement": "inhibition at 10 µM", "setting": "[4]", "result": 0, "unit": "%"},
      {"measurement": "viability at 24 h, 10 µM", "setting": "[3]; 10 µM testosterone, substrate only, read-out: % Cell viability ± SD", "result": 100, "unit": "%"}
    ]},
    {"molecule": "CC(C)(O)c1cc2c(o1)C(=O)c1ccccc1C2=O", "note": "[avicequinone C]", "values": [
      {"measurement": "IC50", "setting": "[6]", "result": "4.45 ± 0.42", "unit": "µM"}
    ]},
    {"molecule": "B1", "values": [
      {"measurement": "Km", "setting": "[7]", "result": 9.287, "unit": "µM"}
    ]}
  ]
}
